# From PMC8861878 (The Journal of pharmacy and pharmacology, 2020)
# Where “and” joins values, the source holds several entries; their conditions need not be identical. Identical values can stand only once.
# Assays:
# [1] = Mono-oxidation of isobavachin by pooled HLM, enzyme kinetics; assay type: in vitro ADME, human
# [2] = Mono-oxidation of isobavachin by MLM, enzyme kinetics; assay type: in vitro ADME, mice
# [3] = Glucuronidation of isobavachin by MLM, enzyme kinetics; assay type: in vitro ADME, mice
# [4] = molecular target: T1, UGT1A1 (Homo sapiens, UniProt P22309); assay: Glucuronidation of isobavachin by recombinant UGT1A1, enzyme kinetics; assay type: in vitro ADME; settings: formation of G1, substrate inhibition model
# T1 sequence (P22309 26-533): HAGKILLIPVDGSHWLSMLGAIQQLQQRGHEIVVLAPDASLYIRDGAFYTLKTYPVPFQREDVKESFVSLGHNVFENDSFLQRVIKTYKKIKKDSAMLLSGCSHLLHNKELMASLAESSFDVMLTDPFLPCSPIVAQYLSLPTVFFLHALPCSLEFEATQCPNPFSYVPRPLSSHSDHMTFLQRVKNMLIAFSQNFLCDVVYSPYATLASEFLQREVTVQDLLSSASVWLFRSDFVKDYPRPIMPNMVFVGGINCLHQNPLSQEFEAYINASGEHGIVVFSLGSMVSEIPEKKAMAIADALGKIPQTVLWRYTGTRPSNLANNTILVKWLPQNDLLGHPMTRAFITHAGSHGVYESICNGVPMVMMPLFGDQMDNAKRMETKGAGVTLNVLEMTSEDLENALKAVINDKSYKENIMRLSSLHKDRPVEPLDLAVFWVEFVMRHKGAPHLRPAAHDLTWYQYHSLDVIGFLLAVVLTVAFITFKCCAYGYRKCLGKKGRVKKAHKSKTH
# [5] = molecular target: T2, UGT1A7 (Homo sapiens, UniProt Q9HAW7); assay: Glucuronidation of isobavachin by recombinant UGT1A7, enzyme kinetics; assay type: in vitro ADME; settings: formation of G1, substrate inhibition model
# T2 sequence (Q9HAW7 26-530): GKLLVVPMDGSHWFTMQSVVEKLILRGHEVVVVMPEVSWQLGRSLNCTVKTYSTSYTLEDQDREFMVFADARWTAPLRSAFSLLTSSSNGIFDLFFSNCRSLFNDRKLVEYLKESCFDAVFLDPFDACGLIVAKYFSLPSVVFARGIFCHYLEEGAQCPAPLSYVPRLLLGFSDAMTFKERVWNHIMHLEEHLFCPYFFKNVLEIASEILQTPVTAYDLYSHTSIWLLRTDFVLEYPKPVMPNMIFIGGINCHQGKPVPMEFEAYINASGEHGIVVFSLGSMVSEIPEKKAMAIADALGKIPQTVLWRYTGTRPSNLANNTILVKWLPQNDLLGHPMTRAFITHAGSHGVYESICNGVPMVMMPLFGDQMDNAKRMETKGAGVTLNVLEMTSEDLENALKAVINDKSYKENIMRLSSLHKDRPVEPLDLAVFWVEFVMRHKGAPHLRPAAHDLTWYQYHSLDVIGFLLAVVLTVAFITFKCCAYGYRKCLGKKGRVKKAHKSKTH
# [6] = molecular target: T3, UGT1A8 (Homo sapiens, UniProt Q9HAW9); assay: Glucuronidation of isobavachin by recombinant UGT1A8, enzyme kinetics; assay type: in vitro ADME; settings: formation of G1, substrate inhibition model
# T3 sequence (Q9HAW9 26-530): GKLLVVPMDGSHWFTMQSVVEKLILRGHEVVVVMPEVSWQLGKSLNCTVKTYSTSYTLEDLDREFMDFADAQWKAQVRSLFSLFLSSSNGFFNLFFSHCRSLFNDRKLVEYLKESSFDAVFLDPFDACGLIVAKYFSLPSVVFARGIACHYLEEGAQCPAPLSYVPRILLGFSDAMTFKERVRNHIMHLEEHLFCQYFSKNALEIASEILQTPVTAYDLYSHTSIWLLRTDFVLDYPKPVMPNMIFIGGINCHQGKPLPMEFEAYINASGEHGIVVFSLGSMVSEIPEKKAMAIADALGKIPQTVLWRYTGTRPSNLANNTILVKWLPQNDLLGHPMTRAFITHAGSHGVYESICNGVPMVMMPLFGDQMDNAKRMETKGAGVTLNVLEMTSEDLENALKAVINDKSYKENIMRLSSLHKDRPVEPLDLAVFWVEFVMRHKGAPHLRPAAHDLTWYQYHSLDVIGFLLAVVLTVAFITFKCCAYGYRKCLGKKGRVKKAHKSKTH
# [7] = molecular target: CYP2C9 (Homo sapiens, UniProt P11712); assay: Inhibition of CYP2C9; assay type: in vitro ADME
# [8] = molecular target: T4, UGT2B7 (Homo sapiens, UniProt P16662); assay: Inhibition of UGT2B7; assay type: in vitro ADME
# T4 sequence (P16662 24-529): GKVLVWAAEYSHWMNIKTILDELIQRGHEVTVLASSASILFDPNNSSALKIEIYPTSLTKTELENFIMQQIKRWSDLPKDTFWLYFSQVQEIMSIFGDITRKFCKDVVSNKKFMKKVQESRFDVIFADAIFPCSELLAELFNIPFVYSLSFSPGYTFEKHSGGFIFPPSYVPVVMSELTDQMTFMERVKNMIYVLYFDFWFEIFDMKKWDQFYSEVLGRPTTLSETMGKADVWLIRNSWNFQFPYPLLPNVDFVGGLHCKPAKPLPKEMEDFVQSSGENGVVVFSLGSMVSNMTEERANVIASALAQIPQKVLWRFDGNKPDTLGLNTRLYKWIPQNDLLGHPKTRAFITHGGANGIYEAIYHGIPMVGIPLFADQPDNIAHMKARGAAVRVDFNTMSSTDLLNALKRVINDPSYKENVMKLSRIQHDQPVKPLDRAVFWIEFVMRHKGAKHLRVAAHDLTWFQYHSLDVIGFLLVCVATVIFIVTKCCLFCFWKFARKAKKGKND
# [9] = intragastric administration of Psoraleae Fructus extracts (1.2 g/kg); cited from earlier work
# [10] = based on the smallest AIC and SC values
# Chain of CYP2C9 (P11712 whole entry): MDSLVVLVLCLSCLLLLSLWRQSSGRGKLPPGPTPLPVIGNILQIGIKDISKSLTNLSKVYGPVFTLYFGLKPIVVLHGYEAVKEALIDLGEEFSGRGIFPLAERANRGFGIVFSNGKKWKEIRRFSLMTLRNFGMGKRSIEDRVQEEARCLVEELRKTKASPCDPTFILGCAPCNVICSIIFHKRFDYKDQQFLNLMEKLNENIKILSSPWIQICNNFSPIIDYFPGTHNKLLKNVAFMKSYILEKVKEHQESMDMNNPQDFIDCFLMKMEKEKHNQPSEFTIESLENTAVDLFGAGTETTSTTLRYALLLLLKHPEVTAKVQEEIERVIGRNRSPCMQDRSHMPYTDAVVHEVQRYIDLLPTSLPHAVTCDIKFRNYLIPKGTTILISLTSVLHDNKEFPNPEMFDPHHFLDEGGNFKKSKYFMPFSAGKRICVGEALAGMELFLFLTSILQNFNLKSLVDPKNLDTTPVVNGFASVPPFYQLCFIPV
compound,measurement,setting,value
CC(C)=CCc1c(O)ccc2c1O[C@H](c1ccc(O)cc1)CC2=O [isobavachin],CLint (CLmax),"[1]; formation of M1, substrate inhibition model",59.81 μl/min per mg and 59.81 ± 21.18 μl/min per mg
same,CLint (CLmax),"[1]; formation of M2, Michaelis–Menten model",5.53 ± 0.93 μl/min per mg
same,CLint (CLmax),"[2]; formation of M1, Michaelis–Menten model",35.46 μl/min per mg and 35.46 ± 5.98 μl/min per mg
same,CLint (CLmax),"[2]; formation of M2, substrate inhibition model",64.32 μl/min per mg and 64.32 ± 17.18 μl/min per mg
same,CLint (CLmax),"[2]; formation of M3, substrate inhibition model",47.43 μl/min per mg and 47.43 ± 7.99 μl/min per mg
same,CLint (CLmax),"[3]; formation of G1, Michaelis–Menten model",144.94 ± 11.20 μl/min per mg
same,CLint (CLmax),"[3]; formation of G2, substrate inhibition model",29.60 ± 9.00 μl/min per mg
same,Ki,[4]; substrate inhibition constant,40820 ± 9700 nM
same,Vmax,[4],7735.0 ± 1186.0 pmol/min per mg
same,Ki,[5]; substrate inhibition constant,27540 ± 5390 nM
same,CLint (CLmax),[5],109.18 ± 24.17 μl/min per mg
same,Vmax,[5],3593.00 ± 487.20 pmol/min per mg
same,Ki,[6]; substrate inhibition constant,17040 ± 3360 nM
same,CLint (CLmax),[6],46.30 ± 11.05 μl/min per mg
same,Vmax,[6],1607.00 ± 241.00 pmol/min per mg
same,IC50,[7],40 ± 5 nM
same,residual activities,[7]; 10 μM isobavachin,1.04 % of the negative control
same,Ki,"[7]; substrate tolbutamide, mixed-type model (not selected)",270 ± 100 nM
same,Ki,"[7]; substrate tolbutamide, non-competitive model (selected, smallest AIC and SC)",220 ± 20 nM
same,Inhibition type,[7]; [10],non-competitive inhibition mode
same,α,"[7]; substrate tolbutamide, mixed-type model",0.70 ± 0.49
same,IC50,[8],90 ± 10 nM
same,residual activities,[8]; 10 μM isobavachin,19.32 % of the negative control
same,Ki,"[8]; substrate zidovudine, mixed-type model (not selected)",40 ± 10 nM
same,Ki,"[8]; substrate zidovudine, non-competitive model (selected, smallest AIC and SC)",50 ± 10 nM
same,Inhibition type,[8]; [10],non-competitive inhibition mode
same,α,"[8]; substrate zidovudine, mixed-type model",1.80 ± 0.93
same,exposure,[9],about 13.2 nM
